Test results: PMC11359963 (Pharmaceutics, 2024)
Non-standard residues stand in square brackets, D forms with d. Residues, ends and D or L forms follow the SMILES beside them. β3hF = N[C@H](CC(=O)O)Cc1ccccc1

Legend:
human PBMCs = assay: Proliferative response of PBMC to PHA (MTT); assay type: cell-based; conditions: summary of structure-activity relationship; PHA-induced PBMC proliferation, 1-100 µg/mL
Description: PBMCs were isolated by centrifugation on a Ficoll-uropoline gradient (density 1.077 g/mL) (Lymphoprep, PAA Laboratories, Linz, Austria), at 800× g for 20 min at 4 °C. The interphase cells were then washed three times with Hanks’ medium and re-suspended in the culture medium (RPMI-1640 with 10% addition of FCS, L-glutamine, sodium pyruvate, 2-mercaptoetanol, and the antibiotics streptomycin and penicillin) at a density of 2 × 10^6 cells/mL.
The isolated PBMCs were distributed into 96-well flat-bottom plates in 100 µL aliquots (2 × 10^5 cells/well). PHA was used at a concentration of 5 µg/mL. The compounds were tested at concentrations of 1, 10, and 100 µg/mL. DMSO at appropriate dilutions served as a control solvent. After a 4-day incubation in a cell culture incubator, the proliferative response of the cells was determined by the colorimetric MTT method [28] in a Dynatech 5000 spectrophotometer. Data (OPSYS MR Dynex Technologies, Chantilly, VA, USA) are presented as a mean optical density (OD) at 550 nm, with a reference wavelength of 630 nm, from quadruplicate wells ± standard error (SE). The control cultures contained no PHA or PHA without the studied compounds.
The assay was performed by the MTT colorimetric method [29]. […] After additional overnight incubation, the OD was measured at 550/630 nm (Dynatech 5000 spectrophotometer).

[1] = system: carrageenan-induced inflammation of the air pouch, mouse model; assay: Carrageenan-induced inflammation of air pouches; assay type: in vivo; conditions: 100 µg/mouse into air pouch; for Eosinophils in peripheral blood: control mice 9.6%; for Neutrophils in peripheral blood: control mice 37%; for Degranulated mastocytes in air pouches: control untreated air pouches 89.7%
Description: (§1) C57Bl/6 female mice, 8–10 weeks old and weighing 19–22 g, were delivered by the Breeding Centre of Laboratory Animals at the Institute of Occupational Medicine, Łódź, Poland and used for this study. Mice had free access to granulated food and filtered water. The local ethics committee at the Institute of Immunology and Experimental Therapy, Wrocław, Poland, approved this study (permission #37/2012).
(§2) Blood smears were made on microscopic glasses, and the preparations were dried and stained with Giemsa and May–Grünwald dyes. The blood picture was evaluated in a light microscope at 1000× magnification in immersion oil. Up to 100 cells were counted per preparation. The results were shown as a percentage of mean values of respective cell types: mature neutrophils, band forms of neutrophils, eosinophils, lymphocytes, and monocytes.
Air pouches were formed by a subdermal injection into the dorsal area (under halothane anesthesia) of 5 mL of air (23 G × 11/4 needle, 5 mL syringe). On the next day, the air pouches were supplemented by 1 mL of air and injected with 0.5 mL of 1% carrageenan solution in PBS. The peptides were dissolved in DMSO (1 mg/100 µL DMSO) and supplemented with 0.9% NaCl solution to a volume of 0.2 mL. P03 and 4B8M peptides were injected into air pouches at a dose of 100 µg/mouse 30 min after carrageenan administration. BG mice received the respective amount of DMSO in 0.9% NaCl. Control mice were given only carrageenan solution plus the respective amount of DMSO. The next day, the mice were bled to perform blood smears and sacrificed. A total of 1 mL of 0.9% NaCl was injected into air pouches and the content aspirated. From this source, a total number was determined, the rest were centrifuged, and from a cell pellet, the smears were performed on microscopic glasses and stained with Giemsa and May Grunwald reagents. The cell composition of air pouch exudates was analyzed and the results were shown as a percentage (mean values of the respective cell types: neutrophils, band forms of neutrophils, eosinophils, basophils, lymphocytes, macrophages, and mastocytes).
Five to nine mice per group were used in the experiments. Results (where applicable) are presented as mean values ± standard error (SE). The Brown–Forsyth test was used to determine the homogeneity of variance between groups. When the variance was homogenous, analysis of variance (one-way ANOVA) was applied, followed by post hoc comparisons with Tukey’s test to estimate the significance of the differences between groups. Nonparametric data were evaluated with the Kruskal–Wallis analysis of variance (ANOVA of K–W), as indicated in the text. Significance was determined at p < 0.05. Statistical analysis was performed using […] 7.0 for Windows.

[2] = 100 μg/mL; unpublished
TNF-α = assay: LPS-induced TNF-α production in human whole blood cell cultures (WEHI 164.13 bioassay); assay type: cell-based; conditions: for % of Inhibition vs. DMSO Control / TNF-α: LPS 1 µg/mL; for % of Inhibition vs. DMSO Control: TNF-α production; for TNF-α: whole blood diluted 10×, overnight, single cultures; for Suppressive Effect on TNF-α Production: summary of structure-activity relationship, LPS-induced, whole blood
Description: Human whole blood was diluted 10× with RPMI-1640 medium and distributed to 24-well culture plates in 1 mL aliquots. LPS was added to the culture at a concentration of 1 µg/mL. The studied peptides were used at concentrations of 1, 10, and 100 µg/mL. After overnight incubation, the supernatants were harvested and frozen at −20 °C until cytokine determination. TNF-α activity was determined using a bioassay with the highly sensitive cell line WEHI 164.13 [29]. Briefly, cells were seeded at a concentration of 2 × 10^4 cells/well in quadruplicate. Increasing dilutions of the assayed supernatant were mixed with the target cells in the presence of actinomycin D (1 µg/mL). After 20 h of incubation, MTT was added into the wells, and the cultures were incubated for an additional 4 h. Next, a lysing buffer (20% SDS with 50% DMF, pH 4.7) was added and the OD at 550/630 nm in a spectrophotometer was measured after 24 h. The detection limit of the assay was about 2.5 pg/mL. One unit of TNF-α activity was defined as an inverse of supernatant dilution where 50% cell death took place. No statistics were applied here since the data were derived from single cultures (wells).

murine leukemia L1210 = conditions: 100 μg/mL; unpublished
[3] = system: contact sensitivity to oxazolone mouse model; assay: Contact sensitivity to oxazolone; assay type: in vivo; conditions: 0.1% ointment on auricles
Description: as §1, §2
The test was performed as described by others, with some modifications. Mice were shaved on the abdomen and after 24 h, 100 µL of 0.5% oxazolone in acetone was applied topically. […] The ear edema was measured after 24 h using a spring caliper. […]
Five to nine mice per group were used in the experiments. […] Nonparametric data were evaluated with the Kruskal–Wallis analysis of variance (ANOVA of K–W), as indicated in the text. Significance was determined at p < 0.05. […]

mouse splenocytes = assay: ConA-induced proliferation of mouse splenocytes (unpublished data); assay type: cell-based; conditions: other data (unpublished)

Molecule | Suppressive Effect on Cell Proliferation (human PBMCs) | Eosinophils in peripheral blood [1] | Neutrophils in peripheral blood [1] | Degranulated mastocytes in air pouches [1] | Inhibition of growth of A431 cells [2] | % of Inhibition vs. DMSO Control (TNF-α; peptide 1 µg/mL) | TNF-α (TNF-α; peptide 1 µg/mL) | % of Inhibition vs. DMSO Control (TNF-α; peptide 10 µg/mL) | TNF-α (TNF-α; peptide 10 µg/mL) | Suppressive Effect on TNF-α Production (TNF-α) | Inhibition of growth of L1210 cells (murine leukemia L1210) | Percentage of all myeloid cell types in circulating blood [3] | Inhibition of concanavalin A (ConA)-induced proliferation of mouse splenocytes (mouse splenocytes)
O=C1C[C@H](Cc2ccccc2)NC(=O)[C@@H]2CCCN2C(=O)[C@H]2CCCN2C(=O)[C@H](Cc2ccccc2)N1 [P03, cyclo-[D-Pro-Pro-β^3-HoPhe-Phe-]] (cyclo([dP]P[β3hF]F)) | significant at 100 µg/mL | 2.0% | 23% | 28.7% | 15% | 25.9% | 6052 pg/mL | 34.8% | 5222 pg/mL | strong | 34% | significantly reduced | –
cyclo- [P02, cyclo-[D-Pro-D-Pro-β^3-HoPhe-D-Phe-]] | – | – | – | – | – | 19.0% | 6614 pg/mL | 20.7% | 6346 pg/mL | small | – | – | –
cyclo-[D-Pro-D-Pro-D-β^3-HoPhe-D-Phe-] [P06] | – | – | – | – | – | 1.6% | 8033 pg/mL | 4.4% | 7658 pg/mL | absent | – | – | –
cyclo-[D-Pro-D-Pro-β^3-HoPhe-Phe-] (head to tail) [P07] | – | – | – | – | – | 21.0% | 6453 pg/mL | 9.0% | 7284 pg/mL | small | – | – | –
cyclo-[Pro-D-Pro-β^3-HoPhe-Phe-] (head to tail) [P05] | – | – | – | – | – | 12.8% | 7123 pg/mL | 10.0% | 7203 pg/mL | – | – | – | –
cyclo-[Pro-Pro-D-β^3-HoPhe-Phe-] (head to tail) [P04] | – | – | – | – | – | 33.1% | 5463 pg/mL | 33.8% | 5302 pg/mL | strong | – | – | –
cyclo[Pro-Pro-β^3-HoPhe-D-Phe-] (head to tail) [P01] | – | – | – | – | – | 14.1% | 7016 pg/mL | 28.1% | 5757 pg/mL | – | – | – | –
cyclo[Pro-Pro-β^3-HoPhe-Phe-] (head to tail) [P00, cyclo-[Pro-Pro-β^3-HoPhe-Phe-], reference compound] | – | 3.4% | 31.5% | 39.5% | – | 9.8% | 7364 pg/mL | 10.4% | 7176 pg/mL | – | – | – | moderate inhibition
